Read-outs that look alike come from different tables or passages of the source.
Columns and labels:
[1] = test system: Lactobacillus plantarum PN0512; assay: Growth of L. plantarum PN0512 in the presence of butanols at different temperatures (OD600 for six hours); assay type: cell-based; set-up: key to Growth in the presence of 1-butanol / Growth in the presence of isobutanol / Growth in the presence of 2-butanol: “+” = growth observed as an increase in OD600.; “−” = no growth observed, i.e. no change in OD600
[2] = test system: Saccharomyces cerevisiae BY4741; conditions: for % Growth Inhibition: six hours
Method: Tolerance levels were determined for yeast strain Saccharomyces cerevisiae BY4741 (described in Example 21) at 25° C. and 30° C. as follows. The strain was cultured in YPD medium. Overnight cultures in the absence of any test compound were started in 25 mL of YPD medium in 150 mL flasks with incubation at 30° C. or at 25° C. in shaking water baths. The next morning, each overnight culture was diluted into a 500 mL flask-containing 300 mL of fresh medium to an initial OD600 of about 0.1. The flasks were incubated in shaking water baths at 30° C. or 25° C., using the same temperature as used for each overnight culture. […] The ΔOD600 was calculated by subtracting the initial OD600 from the final OD600 at 6 hours. The percent growth inhibition relative to the control culture was calculated as follows: % Growth Inhibition=100−[100(Sample ΔOD600/Control ΔOD600)].

[3] = test system: E. coli strain BW25113; assay: Survival of E. coli after 30 min MEK shock (colony counts); assay type: cell-based, Escherichia coli; conditions: for % Survival at 28° C. / % Survival at 37° C.: average of duplicate experiments
[4] = target: 3-hydroxybutyryl-CoA dehydrogenase (Clostridium acetobutylicum, UniProt P52041); assay: Hydroxybutyryl-CoA dehydrogenase activity (NADH oxidation, 340 nm); conditions: induced E. coli BL21-AI culture, one typical assay
[5] = test system: acetoacetyl-CoA thiolase; assay: Acetoacetyl-CoA thiolase activity in cell free extracts (absorbance 303 nm); conditions: cell free extract of arabinose-induced E. coli BL21-AI culture, one typical assay
[6] = test system: butanol dehydrogenase; assay: Butanol dehydrogenase activity (NADH oxidation, 340 nm); assay type: biochemical, Clostridium acetobutylicum; conditions: induced E. coli BL21-AI culture, one typical assay

Chain of 3-hydroxybutyryl-CoA dehydrogenase (P52041 whole entry): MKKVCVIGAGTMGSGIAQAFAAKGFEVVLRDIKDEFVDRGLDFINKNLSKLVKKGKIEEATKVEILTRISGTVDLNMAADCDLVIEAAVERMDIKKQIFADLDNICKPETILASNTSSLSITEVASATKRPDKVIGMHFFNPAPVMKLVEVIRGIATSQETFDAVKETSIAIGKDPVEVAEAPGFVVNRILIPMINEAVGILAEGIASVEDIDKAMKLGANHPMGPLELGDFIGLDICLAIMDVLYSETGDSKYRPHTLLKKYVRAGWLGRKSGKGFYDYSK

1-butanol
2.7%: concentration in which growth was observed ([1]; 30° C.)
43%: % Growth Inhibition ([2]; 1% 1-butanol, 25° C.)
64%: % Growth Inhibition ([2]; 1% 1-butanol, 30° C.)
+: Growth in the presence of 1-butanol ([1]; 1.0 % w/v, 37° C.) | Growth in the presence of 1-butanol ([1]; 1.2 % w/v, 37° C.) | Growth in the presence of 1-butanol ([1]; 1.4 % w/v, 37° C.) | Growth in the presence of 1-butanol ([1]; 1.5 % w/v, 25° C.) | Growth in the presence of 1-butanol ([1]; 1.5 % w/v, 30° C.) | Growth in the presence of 1-butanol ([1]; 1.5 % w/v, 37° C.) | Growth in the presence of 1-butanol ([1]; 1.6 % w/v, 37° C.) | Growth in the presence of 1-butanol ([1]; 1.8 % w/v, 37° C.) | Growth in the presence of 1-butanol ([1]; 2.0 % w/v, 25° C.) | Growth in the presence of 1-butanol ([1]; 2.0 % w/v, 30° C.) | Growth in the presence of 1-butanol ([1]; 2.0 % w/v, 37° C.) | Growth in the presence of 1-butanol ([1]; 2.1 % w/v, 37° C.) | Growth in the presence of 1-butanol ([1]; 2.2 % w/v, 37° C.) | Growth in the presence of 1-butanol ([1]; 2.3 % w/v, 37° C.) | Growth in the presence of 1-butanol ([1]; 2.4 % w/v, 25° C.) | Growth in the presence of 1-butanol ([1]; 2.4 % w/v, 30° C.) | Growth in the presence of 1-butanol ([1]; 2.7 % w/v, 30° C.) | Growth in the presence of 1-butanol ([1]; 2.9 % w/v, 25° C.) | Growth in the presence of 1-butanol ([1]; 3.1 % w/v, 25° C.)
−: Growth in the presence of 1-butanol ([1]; 2.4 % w/v, 37° C.) | Growth in the presence of 1-butanol ([1]; 2.7 % w/v, 37° C.) | Growth in the presence of 1-butanol ([1]; 2.9 % w/v, 30° C.) | Growth in the presence of 1-butanol ([1]; 2.9 % w/v, 37° C.) | Growth in the presence of 1-butanol ([1]; 3.1 % w/v, 30° C.) | Growth in the presence of 1-butanol ([1]; 3.1 % w/v, 37° C.) | Growth in the presence of 1-butanol ([1]; 3.2 % w/v, 25° C.) | Growth in the presence of 1-butanol ([1]; 3.2 % w/v, 30° C.) | Growth in the presence of 1-butanol ([1]; 3.3 % w/v, 25° C.) | Growth in the presence of 1-butanol ([1]; 3.4 % w/v, 25° C.) | Growth in the presence of 1-butanol ([1]; 3.4 % w/v, 30° C.) | Growth in the presence of 1-butanol ([1]; […] w/v, 37° C.)
No growth: % Growth Inhibition ([2]; 2% 1-butanol, 25° C.) | % Growth Inhibition ([2]; 2% 1-butanol, 30° C.)
2.4%: concentration in which growth was not observed ([1]; 37° C.)
2.3%: concentration in which growth was observed ([1]; 37° C.)
less inhibited: growth inhibition of strain BY4741 at 25° C. compared with 30° C. ([2]; 1% 1-butanol)
3.1%: concentration in which growth was observed ([1]; 25° C.)
2.9%: concentration in which growth was not observed ([1]; 30° C.)

CCC(C)O (stereo not shown) [2-butanol]
−: Growth in the presence of 2-butanol ([1]; 4.7 % w/v, 37° C.) | Growth in the presence of 2-butanol ([1]; 4.9 % w/v, 30° C.) | Growth in the presence of 2-butanol ([1]; 5.2 % w/v, 37° C.) | Growth in the presence of 2-butanol ([1]; 5.6 % w/v, 25° C.) | Growth in the presence of 2-butanol ([1]; 5.6 % w/v, 37° C.) | Growth in the presence of 2-butanol ([1]; 6.0 % w/v, 37° C.) | Growth in the presence of 2-butanol ([1]; 6.4 % w/v, 37° C.) | Growth in the presence of 2-butanol ([1]; 7.3 % w/v, 37° C.)
4.9%: concentration in which growth was not observed ([1]; 30° C.)
5.2%: concentration in which growth was observed ([1]; 25° C.)
4.3%: concentration in which growth was observed ([1]; 37° C.)
4.5%: concentration in which growth was not observed ([1]; 37° C.)
4.7%: concentration in which growth was observed ([1]; 30° C.)
+: Growth in the presence of 2-butanol ([1]; 1.8 % w/v, 37° C.) | Growth in the presence of 2-butanol ([1]; 2.1 % w/v, 37° C.) | Growth in the presence of 2-butanol ([1]; 2.9 % w/v, 25° C.) | Growth in the presence of 2-butanol ([1]; 2.9 % w/v, 30° C.) | Growth in the presence of 2-butanol ([1]; 2.9 % w/v, 37° C.) | Growth in the presence of 2-butanol ([1]; 3.1 % w/v, 37° C.) | Growth in the presence of 2-butanol ([1]; 3.6 % w/v, 37° C.) | Growth in the presence of 2-butanol ([1]; 3.8 % w/v, 25° C.) | Growth in the presence of 2-butanol ([1]; 3.8 % w/v, 30° C.) | Growth in the presence of 2-butanol ([1]; 3.8 % w/v, 37° C.) | Growth in the presence of 2-butanol ([1]; 4.0 % w/v, 30° C.) | Growth in the presence of 2-butanol ([1]; 4.3 % w/v, 25° C.) | Growth in the presence of 2-butanol ([1]; 4.3 % w/v, 30° C.) | Growth in the presence of 2-butanol ([1]; 4.3 % w/v, 37° C.) | Growth in the presence of 2-butanol ([1]; 4.7 % w/v, 25° C.) | Growth in the presence of 2-butanol ([1]; 4.7 % w/v, 30° C.) | Growth in the presence of 2-butanol ([1]; 4.9 % w/v, 25° C.) | Growth in the presence of 2-butanol ([1]; 5.2 % w/v, 25° C.) | Growth in the presence of 2-butanol ([1]; […] w/v, 30° C.)

CCC(C)=O [MEK, 2-butanone]
6 % w/v: concentration with full survival ([3]; exposure at 28° C.) | concentration with no survival ([3]; exposure at 37° C.)
100%: % Survival at 28° C. ([3]; MEK 4 % w/v) | % Survival at 37° C. ([3]; MEK 4 % w/v) | % Survival at 28° C. ([3]; MEK 6 % w/v)
4 % w/v: concentration with full survival ([3]; exposure at 37° C.)
0%: % Survival at 37° C. ([3]; MEK 6 % w/v) | % Survival at 37° C. ([3]; MEK 8 % w/v)
0.002%: % Survival at 28° C. ([3]; MEK 8 % w/v)

CC(C)CO [isobutanol]
−: Growth in the presence of isobutanol ([1]; 3.3 % w/v, 30° C.)

BHBD protein: 3-hydroxybutyryl-CoA dehydrogenase (SEQ ID NO:6) from C. acetobutylicum ATCC 824 expressed in E. coli
57.4 µmol/mg/min: specific activity (hydroxybutyryl-CoA dehydrogenase) [4]

ThIA protein: acetoacetyl-CoA thiolase (SEQ ID NO:2) from C. acetobutylicum ATCC 824 expressed in E. coli
16.0 µmol/mg/min: specific activity (acetoacetyl-CoA thiolase) [5]

ThIB protein: acetoacetyl-CoA thiolase (SEQ ID NO:4) from C. acetobutylicum ATCC 824 expressed in E. coli
14.9 µmol/mg/min: specific activity (acetoacetyl-CoA thiolase) [5]

B1: BdhB protein: butanol dehydrogenase (SEQ ID NO:14) from C. acetobutylicum ATCC 824 expressed in E. coli (protein, listed as Clostridium acetobutylicum)
chain: MVDFEYSIPTRIFFGKDKINVLGRELKKYGSKVLIVYGGGSIKRNGIYDKAVSILEKNSIKFYELAGVEPNPRVTTVEKGVKICRENGVEVVLAIGGGSAIDCAKVIAAACEYDGNPWDIVLDGSKIKRVLPIASILTIAATGSEMDTWAVINNMDTNEKLIAAHPDMAPKFSILDPTYTYTVPTNQTAAGTADIMSHIFEVYFSNTKTAYLQDRMAEALLRTCIKYGGIALEKPDDYEARANLMWASSLAINGLLTYGKDTNWSVHLMEHELSAYYDITHGVGLAILTPNWMEYILNNDTVYKFVEYGVNVWGIDKEKNHYDIAHQAIQKTRDYFVNVLGLPSRLRDVGIEEEKLDIMAKESVKLTGGTIGNLRPVNASEVLQIFKKSV
0.169 µmol/mg/min: specific activity (butanol dehydrogenase) [6]

B2: BdhA protein: butanol dehydrogenase (SEQ ID NO:16) from C. acetobutylicum 824 expressed in E. coli (protein, listed as Clostridium acetobutylicum)
chain: MLSFDYSIPTKVFFGKGKIDVIGEEIKKYGSRVLIVYGGGSIKRNGIYDRATAILKENNIAFYELSGVEPNPRITTVKKGIEICRENNVDLVLAIGGGSAIDCSKVIAAGVYYDGDTWDMVKDPSKITKVLPIASILTLSATGSEMDQIAVISNMETNEKLGVGHDDMRPKFSVLDPTYTFTVPKNQTAAGTADIMSHTFESYFSGVEGAYVQDGIAEAILRTCIKYGKIAMEKTDDYEARANLMWASSLAINGLLSLGKDRKWSCHPMEHELSAYYDITHGVGLAILTPNWMEYILNDDTLHKFVSYGINVWGIDKNKDNYEIAREAIKNTREYFNSLGIPSKLREVGIGKDKLELMAKQAVRNSGGTIGSLRPINAEDVLEIFKKSY
0.102 µmol/mg/min: specific activity (butanol dehydrogenase) [6]
